Source: patent publication US20260355169A1, “METHODS OF TREATING CANCERS USING ISOQUINOLINE OR 6-AZA-QUINOLINE DERIVATIVES” (Black Diamond Therapeutics, Inc., priority 2022, published 2026)

How the values were obtained:
[1] = tested on: KRAS G12D patient-derived NSCLC tumor; assay: Combination with binimetinib in mice with KRAS G12D NSCLC PDX model; format: in vivo, Nu/Nu mice; conditions: 50 days, oral gavage; monotherapy or combination
Procedure: (§1) Anti-tumor activity of a compound of the present disclosure in combination with binimetinib was investigated in mice with KRAS G12D NSCLC patient-derived xenograft (PDX) model. Nu/Nu mice implanted with KRAS G12D patient-derived NSCLC tumor were randomized to control or treatment group when the overall average tumor mean volume was 172 mm^3. Mice were administered twice daily approximately 12 hours apart with vehicle, twice daily approximately 12 hours apart with binimetinib, and once daily with the compound of the present disclosure, or the combination for 50 days by oral gavage. […] For representative results of the study, see FIG. 2.

[2] = tested on: A375-Luc melanoma cells; assay: Combination with binimetinib in mice with A375-Luc melanoma (BRAF V600E); format: in vivo, BALB/c nude mice; conditions: 35 days, oral gavage; monotherapy or combination
Procedure: as §1, with “was also” for “was”, “with melanoma cell line with BRAF V600E mutation. BALB/c nude” for “with KRAS G12D NSCLC patient-derived xenograft (PDX) model. Nu/Nu”, “with A375-Luc melanoma cells” for “with KRAS G12D patient-derived NSCLC tumor”, “was 224” for “was 172”, “for 35” for “for 50”, “FIG. 3.” for “FIG. 2.”

[3] = tested on: BaF3 BRAF-KIAA1549 fusion cells; assay: BaF3 BRAF-KIAA1549 fusion cell proliferation assay; format: cell-based; conditions: Mus musculus, BaF3, 96 h, read-out: IC50, inhibition of cell growth, BaF3-BRAF:KIAA1549 Fusion
Procedure: Retroviral Production: The BRAF-KIAA1549 fusion mutant was subcloned into pMXs-IRES-Blasticidin (RTV-016, Cell Biolabs, San Diego, CA). […]. Briefly, HEK 293T cells were plated in Poly-D-lysine coated 6-well plate (2.5×10^5 cells per well) and incubated overnight. The next day, retroviral plasmids (1 μg of BRAF-KIAA fusion mutant, 0.32 μg of pCMV-Gag-Pol and 0.165 μg pCMV-VSV-G) were mixed in 300 μL of Optimem (31985, Life Technologies). The mixture was incubated at room temperature for 5 minutes and then added to Optimem containing transfection reagent Lipofectamine (11668, Invitrogen) and incubated for 20 minutes. The mixture was then added dropwise to HEK 293T cells. The next day the medium was replaced with fresh culture medium and retrovirus was harvested at 24 hours.
Generation of BRAF-KIAA1549 fusion stable cell line: BaF3 cells were plated in V-bottom 96 well plate (COSTAR #3894) in 80 μL of RPMI/10% FBS and 0.01 ng/mL mouse IL-3, supplemented with 8 μg/mL polybrene (4×10^4 cells/well). Cells were transduced with 20 μL of BRAF-KIAA1549 fusion viral supernatant by centrifuging for 30 minutes at 1000 rpm. Cells were placed in a 37 °C incubator overnight. Next day 100 μL of RPMI/10% FBS and 0.01 ng/mL mouse IL-3 was added. After 24 hours, 100 μL of cells were transferred to a 24 well plate containing 900 μL of RPMI/10% FBS and 15 μg/mL Blasticidin. Contents of the 24 well plate were sampled for cell viability via CellTiterGlo (Promega) over a 2-week period.
Assay for cell proliferation: BaF3 BRAF-KIAA1549 fusion cells were resuspended at 1.5×10^5 c/mL in RPMI containing 10% Heat Inactivated FBS, 1% L-glutamine and dispensed in duplicate ([…]) into 384 well plates. To determine the effect of compound on cell proliferation, BaF3 BRAF-KIAA1549 fusion cells were incubated for 96 hours in the presence of vehicle control (DMSO) or compound at varying concentrations. Inhibition of cell growth was determined by luminescent quantification (Envision by Perkin Elmer) of intracellular ATP content using CellTiterGlo (Promega), according to the protocol provided by the manufacturer. To determine the IC50 values, the vehicle-treated cells were normalized as viable cells and analyzed using the CDD Vault, Collaborative Drug Discovery, Burlingame, CA (the Levenberg-Marquardt algorithm; Levenberg, K, […]; Marquardt, D., 1963).
Table A assigns each compound a code for potency in the BaF3 BRAF-KIAA1549 fusion cell proliferation assay: A, B, C, or D. According to the code, A represents an IC50 value<20 nM; B represents an IC50 value≥20 nM and <100 nM; C represents an IC50 value≥100 nM and <500 nM; and D represents an IC50 value≥500 nM.

SMILES	IC50 [3] [nM]	further results
Cn1cnc2c(F)c(Nc3ccc(Br)cc3F)c(C(=O)NOCCO)cc21 [binimetinib]		body weight loss [1]: No significant body weight loss; body weight loss [2]: No significant body weight loss
CNc1cc2ncc(-c3cc(NC(=O)c4cccc(C(O)C(F)(F)F)n4)cnc3C)cc2cn1 (centres unmarked) [compound 210]	> 500	
CNc1cc2ncc(-c3cc(NC(=O)c4ccnc(C(C)(C)F)c4)cnc3C)cc2cn1 [compound 24]	< 20	
CNc1cc2ncc(-c3cc(F)cc(NC(=O)c4cc(C(C)(C)C#N)ccn4)c3)cc2cn1 [compound 47]	100 to 500	
CNc1cc2ncc(-c3cc(NC(=O)c4noc5c4CCCCC5)cnc3C)cc2cn1 [compound 245]	20 to 100	
CNc1cc2ncc(-c3cc(NC(=O)c4ccnc(C(C)(C)C#N)c4)c(F)cc3C)cc2cn1 [compound 217]	20 to 100	
CNc1cc2ncc(-c3cc(NC(=O)c4n[nH]c5c4C[C@@H]4C[C@H]54)cnc3C)cc2cn1 [compound 252]	20 to 100	
CNc1cc2ncc(-c3cc(NC(=O)c4ccnc(C(C)(C)C#N)c4)cnc3C)cc2cn1 [compound 55]	< 20	
CCC(C)c1ccnc(C(=O)Nc2cnc(C)c(-c3cnc4cc(NC)ncc4c3)c2)c1 (centres unmarked) [compound 227]	20 to 100	
CNc1cc2ncc(-c3cc(NC(=O)c4cc(C(C)(C)C#N)ccn4)cnn3)cc2cn1 [compound 49]	< 20	
CNc1cc2ncc(-c3cc(NC(=O)c4cc(C(C)(C)C#N)ccn4)c(F)cc3F)cc2cn1 [compound 43]	20 to 100	
CNc1cc2ncc(-c3cc(F)c(F)c(NC(=O)c4cc(C(C)(C)C#N)ccn4)c3)cc2cn1 [compound 46]	100 to 500	
CNc1cc2ncc(-c3cc(NC(=O)c4noc5c4CN(C(C)C)CC5)cnc3C)cc2cn1 [compound 254]	100 to 500	
CNc1cc2ncc(-c3cc(NC(=O)N(C)c4ccnc(C(F)F)c4)cnc3C)cc2cn1 [compound 190]	100 to 500	
CNc1cc2ncc(-c3cc(NC(=O)c4noc5c4CC(C(C)(C)C)CC5)cnc3C)cc2cn1 (centres unmarked) [compound 241]	100 to 500	
CNc1cc2ncc(-c3cc(NC(=O)c4nccc(C(F)(F)F)c4Cl)cnc3C)cc2cn1 [compound 26]	20 to 100	
CNc1cc2ncc(-c3cc(NC(=O)c4ccnc(C(C)C)c4)cnc3C)cc2cn1 [compound 57]	< 20	
CNc1cc2ncc(-c3cc(NC(=O)c4cccc(C(C)(C)C#N)c4)c(F)cc3C)cc2cn1 [compound 223]	20 to 100	
CNc1cc2c(C#N)cc(-c3cc(NC(=O)c4ccnc(C5(F)CC5)c4)ccc3C)cc2cn1 [compound 272]	20 to 100	
CNc1cc2ncc(-c3cc(NC(=O)c4cc(C(F)(F)F)ccn4)c(F)cc3C)cc2cn1 [compound 224]	100 to 500	
CNc1cc2ncc(-c3cc(NC(=O)c4cc(C(F)F)c(F)cn4)cnc3C)cc2cn1 [compound 66]	20 to 100	
CNc1cc2ncc(-c3cc(C(=O)Nc4cccc(C(C)(C)C#N)c4)cnn3)cc2cn1 [compound 196]	> 500	
CNc1cc2ncc(-c3cc(NC(=O)c4ccnc(C(C)(C)F)c4)c(F)cc3C)cc2cn1 [compound 222]	20 to 100	
CNc1ncc2cc(-c3cc(NC(=O)c4ccnc(C(C)(C)C)c4)cnc3C)cnc2n1 [compound 58]	20 to 100	

More lines, main results first:

IC50 [3] [nM]	SMILES	further results
20 to 100	CNc1cc2ncc(-c3cc(NC(=O)c4cnc5n4C[C@@H](C)CC5)cnc3C)cc2cn1 [compound 258]	
20 to 100	CNc1cc2ncc(-c3cc(NC(=O)c4cc(C(C)(C)C(N)=O)ccn4)ccc3C)cc2cn1 [compound 255]	
< 20	CNc1cc2ncc(-c3cc(NC(=O)c4cc(C(F)(F)F)ccn4)ccc3C)cc2cn1 [compound 1]	
20 to 100	CNc1cc2ncc(-c3cc(NC(=O)c4cc(C(O)C5CC5)ccn4)cnc3C)cc2cn1 (centres unmarked) [compound 201]	
20 to 100	CNc1cc2ncc(-c3cc(NC(=O)c4noc5c4C[C@H](C)CC5)ccc3C)cc2cn1 [compound 237]	
20 to 100	CNc1cc2ncc(-c3cc(NC(=O)c4cc(C(N(C)C)C(F)(F)F)ccn4)ccc3C)cc2cn1 (centres unmarked) [compound 218]	
< 20	CNc1cc2ncc(-c3cc(NC(=O)c4cccc(C(C)(C)C#N)c4)ccc3C)cc2cn1 [compound 193]	
20 to 100	CNc1cc2ncc(-c3cc(NC(=O)c4cnc5n4C[C@H](C)CC5)ccc3C)cc2cn1 [compound 230]	
20 to 100	CNc1cc2ncc(-c3cc(NC(=O)c4nn(C)c5c4CCCC5)cnc3C)cc2cn1 [compound 233]	
< 20	CNc1cc2ncc(-c3cc(NC(=O)c4cc(C5(C#N)CC5)ccn4)ccc3C)cc2cn1 [compound 16]	
20 to 100	CNc1cc2ncc(-c3cc(NC(=O)c4ccnc(C(F)(F)F)c4)ccc3C)cc2cn1 [compound 2]	
< 20	CNc1cc2ncc(-c3cc(NC(=O)c4cnc5n4CC(C)CC5)ccc3C)cc2cn1 (centres unmarked) [compound 204]	
20 to 100	CNc1cc2ncc(-c3cc(NC(=O)c4cc(C(F)(F)F)c(OCCO)cn4)ccc3C)cc2cn1 [compound 71]	
> 500	CNc1cc2ncc(-c3cc(NC(=O)c4n[nH]c5c4CN(C)CC5)cnc3C)cc2cn1 [compound 244]	
20 to 100	CNc1cc2ncc(-c3cc(NC(=O)c4cnc5n4CC(C(F)(F)F)CC5)ccc3C)cc2cn1 (centres unmarked) [compound 220]	
< 20	CNc1cc2ncc(-c3cc(NC(=O)c4n[nH]c5c4CC(C)CC5)ccc3C)cc2cn1 (centres unmarked) [compound 261]	
